From patent publication US7736677B2 (Metaproteomics, LLC, priority 2001, dated 2010)
Marks after values point to notes of the source that are not given here.

Columns and labels:
adiponectin [1] = assay: Adiponectin secretion in LPS/3T3-L1 adipocytes; type: cell-based, murine; conditions: for induction of adiponectin secretion: any of the doses tested; for Concentration of maximum stimulation of adiponectin secretion: LPS-treated D5 3T3-L1 adipocytes
adiponectin [2] = assay: Adiponectin secretion from insulin-resistant 3T3-L1 adipocytes; type: cell-based, murine
IL-6 [3] = assay: IL-6 secretion from TNFα-treated 3T3-L1 adipocytes; type: cell-based, murine; conditions: 10 ng TNFα/ml
adiponectin [4] = assay: Adiponectin secretion from TNFα-treated 3T3-L1 adipocytes; type: cell-based, murine
Procedure: For two days, the cells were allowed grow to reach confluence. […] Adiponectin Assay—The adiponectin secreted into the medium was quantified using the Mouse Adiponectin Quantikine® Immunoassay kit with no modifications (R&D Systems, Minneapolis, Minn.). […] Statistical Calculations and Interpretation—All assays were preformed in duplicate. […] Differences among the doses and test agents were determined using the Student's t-test without correction for multiple comparisons; the nominal five percent probability of a type I error was selected.

IL-6 [5] = assay: IL-6 secretion in LPS/3T3-L1 adipocytes; type: cell-based, murine; conditions: at the dose providing maximum inhibition; for IL-6 Index: indexed to LPS control
PKBγ = PKBγ (Homo sapiens, UniProt Q9Y243); assay: KinaseProfiler Assay; type: biochemical; conditions: 5 ug/ml, read-out: effect (as % of Control)
PKCβII = PKCβII (Homo sapiens, UniProt P05771); assay: KinaseProfiler Assay; type: biochemical; conditions: 5 ug/ml, read-out: effect (as % of Control)
IL-6 [6] = assay: IL-6 secretion from insulin-resistant 3T3-L1 adipocytes; type: cell-based, murine; conditions: high insulin
db/db mice = type: in vivo, mouse; conditions: three consecutive days
DBA/J mice = assay: Collagen induced rheumatoid arthritis murine model; type: in vivo, mouse
[7] = at the concentration of maximum stimulation

PKCβII, sequence (P05771 1-673 isoform P05771-2): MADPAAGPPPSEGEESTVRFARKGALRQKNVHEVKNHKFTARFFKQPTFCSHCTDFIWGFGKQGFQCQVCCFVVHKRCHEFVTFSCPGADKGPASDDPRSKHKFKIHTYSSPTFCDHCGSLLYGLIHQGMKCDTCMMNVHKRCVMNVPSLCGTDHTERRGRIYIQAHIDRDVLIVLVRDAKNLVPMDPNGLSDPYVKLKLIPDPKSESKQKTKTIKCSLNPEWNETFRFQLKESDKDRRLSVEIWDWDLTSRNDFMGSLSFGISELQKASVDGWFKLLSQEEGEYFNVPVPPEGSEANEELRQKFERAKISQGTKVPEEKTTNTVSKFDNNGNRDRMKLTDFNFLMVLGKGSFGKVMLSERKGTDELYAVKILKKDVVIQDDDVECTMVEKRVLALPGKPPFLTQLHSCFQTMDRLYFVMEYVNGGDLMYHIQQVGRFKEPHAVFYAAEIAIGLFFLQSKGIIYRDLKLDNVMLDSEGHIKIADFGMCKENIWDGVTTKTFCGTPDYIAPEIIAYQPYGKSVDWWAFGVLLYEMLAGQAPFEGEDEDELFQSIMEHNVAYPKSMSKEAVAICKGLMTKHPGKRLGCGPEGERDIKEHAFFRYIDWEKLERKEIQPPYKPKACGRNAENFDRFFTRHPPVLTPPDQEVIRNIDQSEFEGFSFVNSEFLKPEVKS
PKBγ, sequence (Q9Y243 whole entry): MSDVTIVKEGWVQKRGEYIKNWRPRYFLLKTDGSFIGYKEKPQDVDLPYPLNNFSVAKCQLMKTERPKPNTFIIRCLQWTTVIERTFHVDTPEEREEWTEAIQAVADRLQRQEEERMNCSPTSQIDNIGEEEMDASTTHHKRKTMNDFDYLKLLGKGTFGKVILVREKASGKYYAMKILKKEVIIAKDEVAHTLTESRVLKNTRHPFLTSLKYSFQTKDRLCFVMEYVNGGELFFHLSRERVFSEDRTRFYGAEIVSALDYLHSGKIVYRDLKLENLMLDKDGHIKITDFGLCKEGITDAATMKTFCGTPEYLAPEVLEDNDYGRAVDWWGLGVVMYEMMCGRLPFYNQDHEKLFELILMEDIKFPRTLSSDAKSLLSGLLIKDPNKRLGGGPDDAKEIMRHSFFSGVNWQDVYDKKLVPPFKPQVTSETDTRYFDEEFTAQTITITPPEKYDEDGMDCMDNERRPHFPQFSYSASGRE

Structure (SMILES): CC(=O)Oc1ccccc1C(=O)O [Aspirin, aspirin]
- induction of adiponectin secretion (adiponectin [1]): failed to induce adiponectin secretion

Structure (SMILES): CC(C)CCC1=C(O)C(C(=O)C(C)C)=C(O)C(CCC(C)C)(CCC(C)C)C1=O [Hexahydro colupulone, hexahydrocolupulone]
- Test Material at Half Maximal Secretion (adiponectin [2]; slope of Hofstee plots): 3.2 µg/mL

Structure (SMILES): COc1ccc2c(c1)c(CC(=O)O)c(C)n2C(=O)c1ccc(Cl)cc1 [Indomethacin, indomethacin]
- % Stimulation of adiponectin secretion (maximum) (adiponectin [1]; [7]): 9%
- IL-6 secretion in the presence of TNFα (IL-6 [3]): no anti-inflammatory effect

Structure (SMILES): CCc1ccc(CCOc2ccc(CC3SC(=O)NC3=O)cc2)nc1 (centres unmarked) [Pioglitazone, pioglitazone]
- Concentration of maximum adiponectin secretion over four doses (adiponectin [4]; 10 ng TNFα/ml, Example 17): 1.25 µg/mL
- Adiponectin Index, Observed (adiponectin [4]; 1.0 μg/ml, indexed to TNFα control (Table 26)): 1.80
- IL-6 Index (IL-6 [5]): 0.37*
- Concentration of maximum stimulation of adiponectin secretion (adiponectin [1]): 1.25 µg/mL
- % Stimulation of adiponectin secretion (maximum) (adiponectin [1]; [7]): 12%

Structure (SMILES): Cc1c(C)c2c(c(C)c1O)CCC(C)(COc1ccc(CC3SC(=O)NC3=O)cc1)O2 (centres unmarked) [Troglitazone, troglitazone]
- Concentration of maximum stimulation of adiponectin secretion (adiponectin [1]): 0.625 µg/mL
- % Stimulation of adiponectin secretion (maximum) (adiponectin [1]; [7]): 15%
- Adiponectin/IL-6 (adiponectin [2]; 5.0 μg/ml, ratio of adiponectin index to IL-6 index (Table 21)): 1.12

Structure (SMILES): COc1cc(O)c(CC=C(C)C)c(O)c1C(=O)/C=C/c1ccc(O)cc1 [Xanthohumol, xanthohumol]
- remaining activity at 5 µg/mL (PKBγ): 104%
- remaining activity at 5 µg/mL (PKCβII): 108%
- IL-6 secretion (IL-6 [6]): Significant decreases in IL-6 secretion

Structure (SMILES): CC(C)Cc1ccc(C(C)C(=O)O)cc1 (centres unmarked) [ibuprofen]
- % Stimulation of adiponectin secretion (maximum) (adiponectin [1]; [7]): 22%

Structure (SMILES): CN(C)C(=N)N=C(N)N [metformin]
- serum glucose relative to the controls (db/db mice): decreased

Structure (SMILES): C[C@]12C=CC(=O)C=C1CC[C@@H]1[C@@H]2[C@@H](O)C[C@@]2(C)[C@H]1CC[C@]2(O)C(=O)CO [prednisolone]
- arthritic index (DBA/J mice; 10 mg/kg, days 30-42): Significant reductions
- serum IL-6 levels (DBA/J mice; mouse, in vivo): reached a statistical significance

Structure (SMILES): O=C(O)c1ccccc1O [salicylic acid]
- % Inhibition of IL-6 secretion (maximum) (IL-6 [5]): 48* %
- IL-6 Index (IL-6 [5]): 0.52*
- induction of adiponectin secretion (adiponectin [1]): failed to induce adiponectin secretion
- Adiponectin Index (adiponectin [1]; at the concentration of maximum stimulation, indexed to LPS control): 0.96
